Data: patent EP1984353B1, “AURORA KINASE MODULATORS AND METHOD OF USE” (Amgen, Inc, priority 2006, dated 2007)
Like-named read-outs stand apart in the source and are kept apart here.

Tests used:
AuroraA-TPX2 = biological target: T1, AuroraA-TPX2 (Homo sapiens, UniProt O14965); assay: AuroraA-TPX2 Homogeneous Time Resolved Fluorescent (HTRF) kinase assay; assay type: biochemical; conditions: average, read-out: AurA/TP X2_ IC50_IP (Avg)
T1 construct: 20 µL of AuroraA-TPX2 KD GST; GST
T1 sequence (O14965 133-383 limits assumed): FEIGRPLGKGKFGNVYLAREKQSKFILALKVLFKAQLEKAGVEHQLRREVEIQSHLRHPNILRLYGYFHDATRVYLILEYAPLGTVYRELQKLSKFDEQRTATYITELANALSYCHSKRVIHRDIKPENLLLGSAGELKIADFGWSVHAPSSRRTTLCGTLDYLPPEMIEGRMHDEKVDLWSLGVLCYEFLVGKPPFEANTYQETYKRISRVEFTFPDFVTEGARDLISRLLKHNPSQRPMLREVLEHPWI
T1 sequence (Q9ULW0 1-43 partner limits assumed): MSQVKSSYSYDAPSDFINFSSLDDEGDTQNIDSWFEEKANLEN
How it was run: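 Aurora-A/TPX2 phosphorylates biotinylated PLK peptide (about 1 µM) with ATP for about 120 min in 60 mM HEPES pH 7.5, 10 mM MgCl2, 2 mM DTT. EDTA quench, overnight equilibration with Eu-anti-phosphoPLK antibody and SA-APC; HTRF read at 615/655 nm after 320 nm excitation.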

AuroraB = biological target: T2, AuroraB (Homo sapiens, UniProt Q96GD4); assay: AuroraB Homogeneous Time Resolved Fluorescent (HTRF) kinase assay; assay type: biochemical; conditions: average, read-out: AurB_ _IC50_IP (Avg)
T2 construct: 20 µL of AuroraB FL His; His
T2 sequence (Q96GD4 whole entry): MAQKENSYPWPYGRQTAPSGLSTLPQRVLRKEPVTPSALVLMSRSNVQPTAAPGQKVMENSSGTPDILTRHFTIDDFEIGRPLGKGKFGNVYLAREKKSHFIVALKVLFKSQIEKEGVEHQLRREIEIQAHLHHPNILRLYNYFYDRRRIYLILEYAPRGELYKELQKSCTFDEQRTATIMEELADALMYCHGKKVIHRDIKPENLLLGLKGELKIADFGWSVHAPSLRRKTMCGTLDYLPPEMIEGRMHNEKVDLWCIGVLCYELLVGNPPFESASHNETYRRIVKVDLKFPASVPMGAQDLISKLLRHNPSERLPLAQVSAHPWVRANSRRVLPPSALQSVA
How it was run: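 Full-length His-tagged AuroraB (400 pM) phosphorylates 0.1 µM biotinylated Histone H3 with 23 µM ATP (Km(app)) in HEPES pH 7.5 with Mg/Mn, about 90 min. EDTA-quenched; Eu-anti-phosphoHistoneH3 and SA-APC HTRF, 655/615 nm ratio as phosphorylation.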

[1] = given as numbers, unit inferred

| Structure (SMILES) | IC50 (AuroraA-TPX2; given as class symbols) [nM] | IC50 (AuroraB; given as class symbols) [nM] | IC50 (AuroraA-TPX2; [1]) [nM] | IC50 (AuroraB; [1]) [nM] |
| --- | --- | --- | --- | --- |
| O=C(O)CCNc1nccc(-c2cccnc2Oc2ccc(Nc3nnc(-c4ccccc4)c4ccccc34)cc2)n1 [compound 327, N-(4-(2-((4-((4-phenyl-1-phthalazinyl)amino)phenyl)oxy)-3-pyridinyl)-2-pyrimidinyl)-beta-alanine] | 100 to 500 | 500 to 2500 |  |  |
| C[C@H]1CN(CCCNc2nccc(-c3cccnc3Oc3ccc(Nc4nnc(-c5ccccc5)c5ccccc45)cc3)n2)[C@@H](C)CO1 [compound 328, N-(4-((3-(2-((3-((2S,5S)-2,5-dimethyl-4-morpholinyl)propyl)amino)-4-pyrimidinyl)-2-pyridinyl)oxy)phenyl)-4-phenyl-1-phthalazinamine] |  |  | 65 | 4.3 |
| Nc1nccc(-c2cccnc2Oc2ccc(Nc3nnc(-c4cccc(COP(=O)(O)O)c4)c4ccccc34)cc2)n1 [compound 351, (3-(4-((4-((3-(2-amino-4-pyrimidinyl)-2-pyrldinyl)oxy)phenyl)amino)-1-phthalazinyl)pbenyl)methyl dihydrogen phosphate] | 100 to 500 | ≤ 100 |  |  |
| Nc1nccc(-c2cccnc2Oc2ccc(Nc3nnc(N4CCCC(O)C4)c4ccccc34)cc2)n1 (centres unmarked) [compound 354, 1-(4-((4-((3-(2-amino-4-pyrimidinyl)-2-pyridinyl)oxy)phenyl)amino)-1-phthalazinyl)-3-piperidinol] |  |  | 87.4 | 25.9 |
| Nc1nccc(-c2cccnc2Oc2ccc(Nc3nnc(N4CCC(O)CC4)c4ccccc34)cc2)n1 [compound 358, 1-(4-((4-((3-(2-amino-4-pyrimidinyl)-2-pyridinyl)oxy)phenyl)amino)-1-phthalazinyl)-4-piperidinol] | 500 to 2500 | ≤ 100 |  |  |
| Nc1nccc(-c2cccnc2Oc2ccc(Nc3nnc(-c4cccc(CCCOP(=O)(O)O)c4)c4ccccc34)cc2)n1 [compound 362, 3-(3-(4-((4-((3-(2-amino-4-pyrimidinyl)-2-pyridinyl)oxy)phenyl)amino)-1-phthalazinyl)phenyl)propyl dihydrogen phosphate] | ≤ 100 | ≤ 100 |  |  |
| Nc1nccc(-c2cccnc2Oc2ccc(Nc3nnc(-c4cccc(O)c4)c4ccccc34)cn2)n1 [compound 363, 3-(4-((6-((3-(2-amino-4-pyrimidinyl)-2-pyridinyl)oxy)-3-pyridinyl)amino)-1-phthalazinyl)phenol] | ≤ 100 | ≤ 100 |  |  |
| Nc1nccc(-c2cccnc2Oc2ccc(Nc3nnc(-c4ccccc4O)c4ccccc34)cc2)n1 [compound 364, 2-(4-((4-((3-(2-amino-4-pyrimidinyl)-2-pyridinyl)oxy)phenyl)amino)-1-phthalazinyl)phenol] | 100 to 500 | ≤ 100 |  |  |
| Nc1nccc(-c2cccnc2Oc2ccc(Nc3nnc(-c4ccccc4O)c4ccccc34)cn2)n1 [compound 365, 2-(4-((6-((3-(2-amino-4-pyrimidinyl)-2-pyridinyl)oxy)-3-pyridinyl)amino)-1-phthalazinyl)phenol] |  |  | 27.6 | 11.3 |
| Nc1nccc(-c2cccnc2Oc2ccc(Nc3nnc(-c4cccc(OP(=O)(O)O)c4)c4ccccc34)cc2)n1 [compound 366, 3-(4-((4-((3-(2-amino-4-pyrimidinyl)-2-pyridinyl)oxy)phenyl)amino)-1-phthalazinyl)phenyl dihydrogen phosphate] | 100 to 500 | 100 to 500 |  |  |
| OCCCNc1nccc(-c2cccnc2Oc2ccc(Nc3nnc(-c4ccccc4)c4ccccc34)cn2)n1 [compound 367, 3-((4-(2-((5-((4-phenyl-1-phthalazinyl)amino)-2-pyridinyl)oxy)-3-pyridinyl)-2-pyrimidinyl)amino)-1-propanol] | ≤ 100 | ≤ 100 |  |  |
| Nc1nccc(-c2cccnc2Oc2ccc(Nc3nnc(-c4ccccc4OP(=O)(O)O)c4ccccc34)cc2)n1 [compound 368, 2-(4-((4-((3-(2-amino-4-pyrimidinyl)-2-pyridinyl)oxy)phenyl)amino)-1-phthalazinyl)phenyl dihydrogen phosphate] | 500 to 2500 | 500 to 2500 |  |  |
| C[C@H](O)c1cccc(-c2nnc(Nc3ccc(Oc4ncccc4-c4ccnc(N)n4)nc3)c3ccccc23)c1 [compound 369, (1S)-1-(3-(4-((6-((3-(2-amino-4-pyrimidinyl)-2-pyridinyl)oxy)-3-pyridinyl)amino)-1-phthalazinyl)phenyl)ethanol] | ≤ 100 | ≤ 100 |  |  |
| Cc1cc(-c2cccc(CO)c2)nnc1Nc1ccc(Oc2ncccc2-c2ccnc(N)n2)cc1 [compound 370, (3-(6-((4-((3-(2-amino-4-pyrimidinyl)-2-pyridinyl)oxy)phenyl)amino)-5-methyl-3-pyridazinyl)phenyl)methanol] | ≤ 100 | ≤ 100 |  |  |
| Nc1cc(-c2cccnc2Oc2ccc(Nc3nnc(-c4ccccc4O)c4ccccc34)cc2)ccn1 [compound 371, 2-(4-((4-((2'-amino-3,4'-bipyridin-2-yl)oxy)phenyl)amino)-1-phthalazinyl)phenol] | 100 to 500 | ≤ 100 |  |  |

Results, then the molecule that gave them:

| IC50 (AuroraA-TPX2; given as class symbols) [nM] | IC50 (AuroraB; given as class symbols) [nM] | IC50 (AuroraA-TPX2; [1]) [nM] | IC50 (AuroraB; [1]) [nM] | Structure (SMILES) |
| --- | --- | --- | --- | --- |
| ≤ 100 | ≤ 100 |  |  | Nc1nccc(-c2cccnc2Oc2ccc(Nc3nnc(N4CCCC(CO)C4)c4ccccc34)cc2)n1 (centres unmarked) [compound 352, (1-(4-((4-((3-(2-amino-4-pyrimidinyl)-2-pyridinyl)oxy)phenyl)amino)-1-phthalazinyl)-3-piperidinyl)methanol] |
| ≤ 100 | ≤ 100 |  |  | Nc1nccc(-c2cccnc2Oc2ccc(Nc3nnc(-c4cccc(CCO)c4)c4ccccc34)cc2)n1 [compound 355, 2-(3-(4-((4-((3-(2-amino-4-pyrimidinyl)-2-pyridinyl)oxy)phenyl)amino)-1-phthalazinyl)phenyl)ethanol] |
| ≤ 100 | ≤ 100 |  |  | Nc1nccc(-c2cccnc2Oc2ccc(Nc3nnc(-c4ccccn4)c4ccccc34)cc2)n1 [compound 356, N-(4-((3-(2-amino-4-pyrimidinyl)-2-pyridinyl)oxy)phenyl)-4-(2-pyridinyl)-1-phthalazinamine] |
| ≤ 100 | ≤ 100 |  |  | CC(C)(O)c1cccc(-c2nnc(Nc3ccc(Oc4ncccc4-c4ccnc(N)n4)cc3)c3ccccc23)c1 [compound 357, 2-(3-(4-((4-((3-(2-amino-4-pyrimidinyl)-2-pyridinyl)oxy)phenyl)amino)-1-phthalazinyl)phenyl)-2-propanol] |
| ≤ 100 | ≤ 100 |  |  | Cc1csc(-c2nnc(Nc3ccc(Oc4ncccc4-c4ccnc(NCCCO)n4)cc3)c3ccccc23)n1 [compound 359, 3-((4-(2-((4-((4-(4-methyl-1,3-thiazol-2-yl)-1-phthalazinyl)amino)phenyl)oxy)-3-pyridinyl)-2-pyrimidinyl)amino)-1-propanol] |
| ≤ 100 | ≤ 100 |  |  | C[C@H](O)c1cccc(-c2nnc(Nc3ccc(Oc4ncccc4-c4ccnc(N)n4)cc3)c3ccccc23)c1 [compound 360, (1S)-1-(3-(4-((4-((3-(2-amino-4-pyrimidinyl)-2-pyridinyl)oxy)phenyl)amino)-1-phthalazinyl)phenyl)ethanol] |
| ≤ 100 | ≤ 100 |  |  | C[C@@H](O)c1cccc(-c2nnc(Nc3ccc(Oc4ncccc4-c4ccnc(N)n4)cc3)c3ccccc23)c1 [compound 361, (1R)-1-(3-(4-((4-((3-(2-amino-4-pyrimidinyl)-2-pyridinyl)oxy)phenyl)amino)-1-phthalazinyl)phenyl)ethanol] |
